# Source: US20240294551A1 (AMGEN INC., priority 2022, published 2024)
# Key:
# [1] = biological target: GDP-bound KRAS protein (aa 1-169), containing both G12D and C118A amino acid substitutions (Homo sapiens (Human), UniProt P01116, C118A/G12D); experiment: KRAS G12D Coupled Nucleotide Exchange Assay; type: biochemical; details: read-out: KRAS G12D Coupled Exchange IC50
# AsPC-1 cells = experiment: AsPC-1 CTG Assay (CellTiter-Glo cell viability); type: cell-based, human; details: Homo sapiens, ASPC1, 72 h, AsPC-1, 72 h; first value of the cell; read-out: G12D/C/V Cell Proliferation CTG (72 h) AsPC-1
# Summary of the method: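 IC50 values derive from 4-parameter logistic fits of CellTiter-Glo luminescence, expressed relative to DMSO. Compound dilution series were applied to overnight-seeded AsPC-1 or SW620 cells (RPMI 1640, 10% FBS) for 72 h at 37 °C, 5% CO2.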
# [2] = test system: Phosphorylation of ERK1/2 in AsPC-1 cells; experiment: Phospho-ERK1/2 MSD Assay; type: cell-based, human; details: Homo sapiens, ASPC1, 2 h, read-out: 2 h p-ERK (AsPC-1 cells), IC50
# Summary of the method: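 Read-out: MSD electrochemiluminescent detection of phosphorylated ERK1/2 in whole-cell lysates, fitted to a 4-parameter logistic curve for IC50. Prior to lysis, AsPC-1 cells (25,000 per well) received a 2 h compound dose-response at 37 °C.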
# [3] = biological target: His-tagged KRAS G12D protein (Homo sapiens (Human), UniProt P01116, G12D); experiment: KRAS G12D TR-FRET Assay; type: binding; details: read-out: KRAS G12D Binding IC50
# Summary of the method: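 Each incubation ran at room temperature: enzyme with compound for 30 minutes, peptide for one hour, and detection reagents (0.4 nM europium anti-6×His, 5 nM streptavidin-d2) for one hour more. Protein and peptide stocks were each diluted to 20 nM before addition.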
# SW620 cells = experiment: SW620 CTG Assay (CellTiter-Glo cell viability); type: cell-based, human; details: Homo sapiens, SW-620; SW620, 72 h; third value of the cell; read-out: G12D/C/V Cell Proliferation CTG (72 h) SW620
# Experimental: AsPC-1 and SW620 CTG Assay Protocols
# AsPC-1 (human pancreatic adenocarcinoma; ATCC CRL-1682) or SW620 (human colon adenocarcinoma; ATCC CCL-227) cells were cultured in RPMI 1640 medium containing 10% fetal bovine serum and 1× penicillin/streptomycin/L-glutamine. Cells were seeded in 384-well plates at a density of 3.33E+04 cells/mL and incubated at 37° C., 5% CO2, overnight. Serially-diluted compound or DMSO was added to the cells, and plates were incubated at 37° C., 5% CO2 for 72 h. Cell viability was measured using a CellTiter-Glo® Luminescent Cell Viability Assay kit (Promega) according to the manufacturer's protocol. The luminescence signal of treated samples was normalized to DMSO control, and data were analyzed using a 4-parameter logistic model to calculate IC50 values.
# Chain of His-tagged KRAS G12D protein (P01116 other isoform, or with tags, fused parts or gaps G12D): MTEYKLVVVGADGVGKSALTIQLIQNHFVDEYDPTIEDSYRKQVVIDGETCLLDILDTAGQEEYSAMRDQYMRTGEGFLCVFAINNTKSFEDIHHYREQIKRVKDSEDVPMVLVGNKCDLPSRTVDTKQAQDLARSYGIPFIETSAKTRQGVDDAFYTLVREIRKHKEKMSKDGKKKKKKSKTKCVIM
# Chain of GDP-bound KRAS protein (aa 1-169), containing both G12D and C118A amino acid substitutions (P01116 other isoform, or with tags, fused parts or gaps G12D/C118A): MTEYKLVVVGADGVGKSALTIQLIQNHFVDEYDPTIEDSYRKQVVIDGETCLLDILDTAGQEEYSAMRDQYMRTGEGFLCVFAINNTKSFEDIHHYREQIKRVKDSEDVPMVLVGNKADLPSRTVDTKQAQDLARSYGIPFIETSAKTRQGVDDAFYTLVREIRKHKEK
SMILES,IC50 [1] [nM],IC50 (AsPC-1 cells) [nM],IC50 [2] [nM],IC50 [3] [nM],IC50 (SW620 cells) [nM]
"Cc1cc2[nH]ncc2c2c1CCOC(=O)O[C@H]1C[C@]3(CCCN(C3)c3nc(OC[C@@H]4CCCN4C)nc4c(F)c-2ncc34)C1 (single isomer, unassigned) [Example 326]",2,114,16.8,4,66
"Cc1cc2[nH]ncc2c2c1[C@H]1C[C@H]1COCC[C@@H]1CCCN(C1)c1nc(OC[C@@]34CCCN3C[C@H](F)C4)nc3c(F)c-2ncc13 [Example 153, (11S,13R,18S)-31-fluoro-25-(((2R,7aS)-2-fluorotetrahydro-1H-pyrrolo[1,2-a]pyrrol-7a(5H)-yl)methoxy)-9-methyl-15-oxa-5,6,22,24,26,30-hexaazaheptacyclo[25.3.1.1~18,22~.0~2,10~.0~3,7~.0~11,13~.0~23,28~]dotriaconta-1(31),2,4,7,9,23,25,27,29-nonaene]",3,210,9,3,32.5
"CN1CCC[C@H]1COc1nc2c3cnc(c(F)c3n1)-c1c(c(Cl)cc3[nH]ncc13)CCCOC(=O)O[C@@H]1COCCN2C1 [Example 207, (26S)-18-chloro-32-fluoro-4-(((2S)-1-methyl-2-pyrrolidinyl)methoxy)-23,25,28-trioxa-1,3,5,9,14,15-hexaazahexacyclo[24.4.1.1~6,10~.0~2,7~.0~11,19~.0~12,16~]dotriaconta-2,4,6,8,10(32),11,13,16,18-nonaen-24-one]",2,196,14.7,4,58
"O=C1CCCCc2c(Cl)cc3[nH]ncc3c2-c2ncc3c(nc(OC[C@@]45CCCN4C[C@H](F)C5)nc3c2F)N2CC[C@H]3CCN1[C@H]3C2 [Example 62, (28S,32R)-18-chloro-33-fluoro-4-(((2R,7aS)-2-fluorotetrahydro-1H-pyrrolo[1,2-a]pyrrol-7a(5H)-yl)methoxy)-1,3,5,9,14,15,25-heptaazaheptacyclo[23.5.2.1~6,10~.0~2,7~.0~11,19~.0~12,16~.0~28,32~]tritriaconta-2,4,6,8,10(33),11,13,16,18-nonaen-24-one]",2,70,4,3,10
"O=C1OCCCc2c(Cl)cc3[nH]ncc3c2-c2ncc3c(nc(OC[C@@]45CCCN4C[C@H](F)C5)nc3c2F)N2CCC[C@](CF)(C2)O1 [Example 336, (17R)-9-chloro-30-fluoro-17-(fluoromethyl)-24-(((2R,7aS)-2-fluorotetrahydro-1H-pyrrolo[1,2-a]pyrrol-7a(5H)-yl)methoxy)-14,16-dioxa-5,6,21,23,25,29-hexaazahexacyclo[24.3.1.1~17,21~.0~2,10~.0~3,7~.0~22,27~]hentriaconta-1(30),2,4,7,9,22,24,26,28-nonaen-15-one]",3,31,12,3,49
Fc1c2ncc3c(nc(OC[C@@]45CCCN4C[C@H](F)C5)nc13)N1CCCC(C1)c1cnn(n1)CCCc1c(Cl)cc3[nH]ncc3c1-2 (stereo partly shown) [Example 148],5,460,42,7,165
O=C1OCCc2c(Cl)cc3[nH]ncc3c2-c2ncc3c(nc(OC[C@@]45CCCN4C[C@H](F)C5)nc3c2F)N2CCC[C@@H](CO1)C2 [Example 221],1,209,7.1,4,75
"CN1C(=O)CCCCc2c(Cl)cc3[nH]ncc3c2-c2ncc3c(nc(OC[C@@]45CCCN4C[C@H](F)C5)nc3c2F)N2CCC[C@@H]1C2 [Example 53, (17R)-9-chloro-30-fluoro-24-(((2R,7aS)-2-fluorotetrahydro-1H-pyrrolo[1,2-a]pyrrol-7a(5H)-yl)methoxy)-16-methyl-5,6,16,21,23,25,29-heptaazahexacyclo[24.3.1.1~17,21~.0~2,10~.0~3,7~.0~22,27~]hentriaconta-1(30),2,4,7,9,22,24,26,28-nonaen-15-one]",4,480,74,8,150
"Fc1c2ncc3c(nc(OC[C@@]45CCCN4C[C@H](F)C5)nc13)N1CCC[C@H](C1)Cn1ncc(n1)CCc1c(Cl)cc3[nH]ncc3c1-2 [Example 156, (18R)-9-chloro-31-fluoro-25-(((2R,7aS)-2-fluorotetrahydro-1H-pyrrolo[1,2-a]pyrrol-7a(5H)-yl)methoxy)-5,6,15,16,22,24,26,30,33-nonaazaheptacyclo[25.3.1.1~13,16~.1~18,22~.0~2,10~.0~3,7~.0~23,28~]tritriaconta-1(31),2,4,7,9,13(33),14,23,25,27,29-undecaene]",3,720,110,12,367
"Fc1c2ncc3c(nc(OC[C@@]45CCCN4C[C@H](F)C5)nc13)N1CCOC[C@@H](COCCCCc3c(Cl)cc4[nH]ncc4c3-2)C1 (single isomer, unassigned) [Example 137]",2,420,47,4,96.7
"C[C@@]12CCCN(C1)c1nc(OC[C@@]34CCCN3C[C@H](F)C4)nc3c(F)c(ncc13)-c1c(c(Cl)cc3[nH]ncc13)CCCOC(=O)O2 [Example 327, (17R)-9-chloro-30-fluoro-24-(((2R,7aS)-2-fluorotetrahydro-1H-pyrrolo[1,2-a]pyrrol-7a(5H)-yl)methoxy)-17-methyl-14,16-dioxa-5,6,21,23,25,29-hexaazahexacyclo[24.3.1.1~17,21~.0~2,10~.0~3,7~.0~22,27~]hentriaconta-1(30),2,4,7,9,22,24,26,28-nonaen-15-one]",2,13,8.4,4,24
"Fc1c2ncc3c(nc(OC[C@@]45CCCN4C[C@H](F)C5)nc13)N1CCOC[C@H](C1)OC(=S)OCCCc1c(Cl)cc3[nH]ncc3c1-2 [Example 199, (26S)-18-chloro-32-fluoro-4-(((2R,7aS)-2-fluorotetrahydro-1H-pyrrolo[1,2-a]pyrrol-7a(5H)-yl)methoxy)-23,25,28-trioxa-1,3,5,9,14,15-hexaazahexacyclo[24.4.1.1~6,10~.0~2,7~.0~11,19~.0~12,16~]dotriaconta-2,4,6,8,10(32),11,13,16,18-nonaene-24-thione]",3,46,15.7,4,22
"Cc1cc2[nH]ncc2c2c1CCCOC(=O)O[C@@H]1CCCN(C1)c1nc(OC[C@@]34CCCN3C[C@H](F)C4)nc3c(F)c-2ncc13 [Example 38, (17R)-30-Fluoro-24-(((2R,7aS)-2-fluorotetrahydro-1H-pyrrolo[1,2-a]pyrrol-7a(5H)-yl)methoxy)-9-methyl-14,16-dioxa-5,6,21,23,25,29-hexaazahexacyclo[24.3.1.1˜17,21˜.0˜2,10˜.0˜3,7˜.0˜22,27˜]hentriaconta-1(30),2,4,7,9,22,24,26,28-nonaen-15-one bis(2,2,2-trifluoroacetate)]",2,443,20,2,76
"O=C1OCCCc2c(Cl)cc3[nH]ncc3c2-c2ncc3c(nc(OC[C@@]45CCCN4C[C@H](F)C5)nc3c2F)N2CCCC[C@H](C2)O1 [Example 100, (26R)-18-chloro-32-fluoro-4-(((2R,7aS)-2-fluorotetrahydro-1H-pyrrolo[1,2-a]pyrrol-7a(5H)-yl)methoxy)-23,25-dioxa-1,3,5,9,14,15-hexaazahexacyclo[24.4.1.1~6,10~.0~2,7~.0~11,19~.0~12,16~]dotriaconta-2,4,6,8,10(32),11,13,16,18-nonaen-24-one]",1,60,4,2,10
